Experiments:
[1] = DSC thermal degradation; assay type: physicochemical; conditions: closed Au crucibles, -50 to 250° C.
Protocol: DSC experiments were carried out with a Perkin Elmer DSC 7 using closed Au crucibles with a heating range between −50 to 250° C. and a heating rate of 10 or 20° C./min.
Estimation of the amorphous content by DSC was not possible. […] A glass transition temperature or melting point was not detected.

[2] = Direct dissolution of lurbinectedin in sodium lactate buffer (dissolution kinetics); assay type: physicochemical
Protocol: In embodiments, the lurbinectedin to be dissolved is at least partially crystalline. The lurbinectedin to be dissolved may be in the solid state form(s) described herein. […] By way of example, while the direct dissolution of amorphous lurbinectedin at 0.5 mg/mL in 0.03 M sodium lactate buffer pH 4 was completed in approximately 30 minutes, partly crystalline lurbinectedin reached only 60-70% of the target concentration in 2 hours, meaning that it had much slower dissolution kinetics.

[3] = Electrostatic charge measurements with a Faraday cage; assay type: physicochemical; conditions: for Dispersion of charge density (Q/m) / Average charge density (Q/m): Faraday cage, dry nitrogen, ranges with 95% confidence; for Average charge density (Q/m): slope of lineal regression of charge vs mass
Source text: The electrostatic charges of two batches of form A of lurbinectedin (Batches P04 and R05) and of form B of lurbinectedin (Batch 1924129-LT and 1924128-LT) have been measured using a Faraday cage (See FIG. 8) constructed of stainless steel with concentric spheres with ratios 10, 15 and 20 cm.
This technique consists in placing the sample to be measured (q) in the interior of the inner sphere (a) and measuring the difference of potential induced between sphere (a) and another conductor of reference, sphere (b). The external sphere (c) is grounded in order to shield the system. The measurements of the difference of potential were carried out with a precision electrometer (Keithley 617, resolution 10fC.
Measurements were carried out under controlled atmosphere of dry nitrogen in order to avoid the effect of ambient humidity on the electrostatic charge of the samples.
Samples were introduced in glass capsules using non-conductor instrumental to avoid loses of electrostatic charge.
The capsules loaded with the samples were introduced in the Faraday cage through a grounded conductor tube to avoid parasitic static charges in the glass capsule. The entry and removal of the capsules was done with a computer-controlled servo engine, in order to ensure a constant rate of introduction and removal of the capsules in each measurement to minimize the creation of static charges due to friction of the insulator elements.
Several measurements with different amounts of material were carried out for each batch of each form of lurbinectedin. Before loading the capsules, they were washed and their remaining static charge was measured in order to correct the levels. Each sample was introduced and removed five times and, after each introduction, several consecutive measurements were taken in order to average any possible drift effect. FIGS. 9a and 9b summarized the results of such measurement for each pair of batches of forms A and B of lurbinectedin.
The measured charge Q increases with the amount of analyzed material. Both forms of lurbinectedin have a positive electrostatic charge. […] The data was fitted by lineal regression (dashed lines in FIGS. 9a and 9b) to obtain the charge density (Q/m) as the slope of the line. […] All ranges are given with a 95% confidence.

[4] = Dynamic vapor sorption (DVS); assay type: physicochemical
Protocol: DVS experiments were carried out with a Projekt Messtechnik SPS 11-100n multi-sample water vapor sorption analyzer. The sample was allowed to equilibrate at 50% r.h. before starting a pre-defined humidity program. The program was: • 2 h at 50% r.h. • 50 to 0% r.h. […]
DVS indicates a continuous water uptake and release with no steps and almost no hysteresis. […] Upon lowering the relative humidity again, the water content decreased and nearly returned to the original mass, see FIG. 5.

[5] = TG-FTIR thermal degradation; assay type: physicochemical; conditions: N2 atmosphere, 25-250° C., 10° C./min
Protocol: TG-FTIR experiments were conducted with a Thermo-Microbalance TG-209 (Netzsch) equipped with a FT-IR Spectrometer Vector 22 (Bruker) using Al crucible (open or with microhole) under N2 atmosphere with a heating range between 25 and 250° C. and a heating rate of 10° C./min.
TG-FTIR indicates degradation above 150° C. for form B of lurbinectedin. A release of 2.6% of water was detected.

[6] = Maximum solubility of lurbinectedin in different molarities of lactic acid; assay type: physicochemical
Protocol: As such, in embodiments, a concentrated lurbinectedin solution is prepared in organic acid before addition of other excipients. In preferred embodiments, the organic acid has a pH less than 4, preferably less than 3.5, more preferably less than 3, or around 3. The maximum solubility of lurbinectedin was investigated in different molarities of the organic acid lactic acid. […] In a preferred embodiment, lurbinectedin is dissolved in an organic acid with a molarity of around 0.1 M to 0.5 M, preferably around 0.2 M to 0.4 M, more preferably around 0.3 M organic acid. An exemplary molarity is 0.31 M organic acid.

[7] = Mixing of the concentrated lurbinectedin solution with buffer solution, precipitation; assay type: physicochemical; conditions: high concentration lurbinectedin solution (8.3 mg/mL in 0.1M lactic acid)
Protocol: In embodiments, a multi-step compounding strategy is used to prepare lurbinectedin. Step 1 is the pre-dissolution step described above, for example: pre-dissolving partly crystalline lurbinectedin in lactic acid 0.31M at 25 mg/mL and diluting 3× with WFI to obtain the concentrated solution at 8.3 mg/mL in 0.1M lactic acid. To avoid precipitation of lurbinectedin, the remaining excipients should have acid pH when added to the compounding formulation. […] As such, in Step 2, an organic buffer solution containing the bulking agent (eg disaccharide) may be prepared at suitable pH. By way of example, this may comprise the preparation of a 0.04 M sodium lactate buffer at pH of around 4.2 containing sucrose. In step 3, the solutions from step 1 and step 2 are combined to form the final bulk solution. The final bulk solution may be adjusted with WFI to achieve the final target weight. By way of example, in step 3, the 8.3 mg/mL lurbinectedin concentrated solution in 0.1M lactic acid with pH≈3 is diluted with 0.04M sodium lactate buffer pH≈4.2 containing sucrose. The final bulk solution composition after adjustment of WFI to final weight may be, by way of example, 0.5 mg/mL lurbinectedin in 0.03M sodium lactate buffer pH=4+10% (w/v) sucrose. The present invention therefore identifies a compounding strategy to formulate partially crystalline lurbinectedin.

[8] = tested on: xenografted human tumor cell lines; conditions: xenografts in mice, such as breast, kidney and ovarian cancer; cited from earlier work
[9] = tested on: solid and non-solid tumour cell lines; conditions: cited from earlier work

Substance: lurbinectedin [form B of lurbinectedin]
- Temperature at which degradation begins (DSC) [1]: above 130 °C
- Fraction of target concentration reached ([2]; target 0.5 mg/mL in 0.03 M sodium lactate buffer pH 4, in 2 hours): 60-70%
- Dispersion of charge density (Q/m) ([3]; listed as 1924128-LT): 1.01 ± 0.3 nC/g
- Dispersion of charge density (Q/m) ([3]; listed as 1924129-LT): 3.4 ± 1.4 nC/g
- Average charge density (Q/m) ([3]; listed as 1924128-LT): 4.3 ± 0.4 nC/g
- Average charge density (Q/m) ([3]; listed as 1924129-LT): 4.96 ± 2.0 nC/g
- Average charge density relative to form A ([3]; two different batches of each form): one order of magnitude lower
- Deliquescence (DVS) [4]: not deliquescent
- Hygroscopicity (DVS) [4]: hygroscopic
- Mass change Δm (water uptake, DVS) ([4]; 50 to 96% r.h.): ≈ 4%
- Degradation temperature (TG-FTIR) [5]: above 150 °C

Substance: lurbinectedin
- Maximum solubility ([6]; 0.05 M lactic acid): 7.2 mg/mL
- Maximum solubility ([6]; 0.5 M lactic acid): 90.4 mg/mL
- pH of buffer solution that can be mixed without precipitation of lurbinectedin [7]: ≤ 5.6
- In vivo activity [8]: significant
- In vitro activity [9]: highly potent

Substance: lurbinectedin [form A of lurbinectedin]
- Time to complete direct dissolution ([2]; 0.5 mg/mL in 0.03 M sodium lactate buffer pH 4): approximately 30 minutes
- Total static charge relative to form B [3]: considerably higher
- Dispersion of charge density (Q/m) ([3]; listed as P04): 7.6 ± 2.8 nC/g
- Dispersion of charge density (Q/m) ([3]; listed as R05): 15.23 ± 5.64 nC/g
- Average charge density (Q/m) ([3]; listed as P04): 43.1 ± 3.86 nC/g
- Average charge density (Q/m) ([3]; listed as R05): 64.02 ± 7.98 nC/g
